Data on three molecules can be found in patent publication US10785975B2, “Water and feed antimicrobial preservative” (priority 2009, dated 2020).

Where two headings read alike, the source gives them in different places.

In one assay the test system is M. gypseum. The note with it: acids tested independently, cited from earlier work.
Assay [1] relates to Salmonella typhimurium. Description: Example 1: effect of pH buffering of acetic and propionic acid on antimicrobial activity in water. Type of assay: cell-based. The procedure, abridged:
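Acetic and propionic acids buffered with ammonium hydroxide to pH 1–7 in water, then inoculated with Salmonella typhimurium broth culture. Survivors plated at 4 and 24 h, counted after 24 h at 37° C; minimum effective dose derived by linear regression.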

Assay [2] has as its system Salmonella typhimurium. Description: Example 3: buffered organic acid mixtures with pelargonic acid in water. The assay is classed as cell-based. Here is the method: Procedure: Propionic and acetic acids were buffered with ammonium hydroxide to a pH of 3 and combined with pelargonic in the ratios above. Acid content of the buffered solutions was determined by weight to weight ratio calculation (weight of acid/total weight of buffered solution) and adjusted to provide an equal acid value for each treatment. […] The pHs of the deionized water solutions were recorded and any problems with solubility noted.
100 ul of a nutrient broth culture of Salmonella typhimurium was added to each dilution tube. After addition, tubes were vortexed and allowed to stand. At 4 and 24 hours after addition of the inoculum, 100 ul of the solution was plated on Standard Plate agar (triplicate plates). Plates were incubated at 37° C. for 24 hours prior to enumeration. The minimum effective dose of each acid was determined by linear regression.

Assay [3] concerns Salmonella typhimurium. Put plainly: Study 4: pelargonic acid (1-20%) in buffered propionic or acetic acid in water. The assay is classed as cell-based. Here is the method:
Propionic and acetic acids were buffered with ammonium hydroxide to a pH of 3 and combined with pelargonic in the ratios listed. Acid content of the buffered solutions was determined by weight to weight ratio calculation (weight of acid/total weight of buffered solution) and adjusted to provide an equal acid value for each treatment. […] The pHs of the deionized water solutions were recorded and any problems with solubility noted.
100 ul of a nutrient broth culture of Salmonella typhimurium was added to each dilution tube. After addition, tubes were vortexed and allowed to stand. At 4 and 24 hours after addition of the inoculum, 100 ul of the solution was plated on Standard Plate agar (triplicate plates). Plates were incubated at 37° C. for 24 hours prior to enumeration.

Assay [4] concerns Salmonella typhimurium. Description: Study 6: capric acid in acetic or propionic acid against salmonella in poultry feed. Particulars: Capric/Acetic acids, 24 hours after treatment. The assay is classed as cell-based. On the procedure: Commercial poultry feed amended with Salmonella typhimurium was treated with 1 or 3 kg/MT of the solutions listed below. Twenty four hours after treatment, 10 gr of feed was added to 90 ml Butterfield buffer, mixed and then 100 ul of the solution was plated on Standard Plate agar (triplicate plates). Plates were incubated at 37° C. for 24 hours prior to enumeration.

Where [5] appears, read: Product Conc. 0.025 (% acid solution in water), 4 hr.
The mark [6] stands for this setting: Product Conc. 0.025 (% acid solution in water), 24 hr.
Where [7] appears, read: Product Conc. 0.05 (% acid solution in water), 4 hr.
[8] abbreviates: Product Conc. 0.05 (% acid solution in water), 24 hr.
The mark [9] stands for this setting: Product Conc. 0.075 (% acid solution in water), 4 hr.
The mark [10] stands for this setting: Product Conc. 0.075 (% acid solution in water), 24 hr.
Setting [11] is: Product Conc. 0.1 (% acid solution in water), 4 hr.
The mark [12] stands for this setting: Product Conc. 0.1 (% acid solution in water), 24 hr.
The mark [13] stands for this setting: Product Conc. 0.025 (% total acid solution in water), 4 hr.
[14] abbreviates: Product Conc. 0.025 (% total acid solution in water).
[15] abbreviates: Product Conc. 0.05 (% total acid solution in water), 4 hr.
[16] abbreviates: Product Conc. 0.05 (% total acid solution in water).
Where [17] appears, read: Product Conc. 0.075 (% total acid solution in water), 4 hr.
Setting [18] is: Product Conc. 0.075 (% total acid solution in water).
Setting [19] is: Product Conc. 0.1 (% total acid solution in water), 4 hr.
[20] abbreviates: Product Conc. 0.1 (% total acid solution in water).
The mark [21] stands for this setting: Product Concentration 0.025 (% total acid solution in water).
Where [22] appears, read: Product Concentration 0.05 (% total acid solution in water).

With `CCCCCCCCCC(=O)O` [capric acid], the “minimum inhibitory concentration (MTC) to prevent growth of M. gypseum” value is 75 µg/mL in the assay with M. gypseum (in liquid media) and 20 µg/mL in the assay on M. gypseum (on solid media).
As to `CCC(=O)O` [Propionic pH 3, Propionic acid], in the assay on Salmonella typhimurium [1] (Minimum Inhibitory Concentrations, by linear regression over 0.025-0.1% acid solutions, 4 hr, pH 3), the “MIC at 4 Hr” value is 0.149. For the same molecule, the “MIC at 24 HR” value with Salmonella typhimurium [1] (Minimum Inhibitory Concentrations, by linear regression over 0.025-0.1% acid solutions, 24 hr, pH 3) is recorded as 0.069. The “Salmonella at time Interval 4 hr % reduction” value turned out to be 2% in the assay on Salmonella typhimurium [1] (setting [5]); 44% with Salmonella typhimurium [1] (setting [7]); 35% in the assay with Salmonella typhimurium [1] (setting [9]); 60% with Salmonella typhimurium [1] (setting [11]); 25% in the assay on Salmonella typhimurium [2] (setting [13]); 42% with Salmonella typhimurium [2] (setting [15]). The “Salmonella at time Interval 4 hr % reduction” value in the assay on Salmonella typhimurium [2] (setting [17]) came to 25%; with Salmonella typhimurium [2] (setting [19]), 44%; in the assay on Salmonella typhimurium [3] (setting [21]), 29%; in the assay on Salmonella typhimurium [3] (setting [22]), 29%. For the same molecule, the “Salmonella at time Interval 4 hr cfu/g” value with Salmonella typhimurium [1] (setting [5]) stood at 1467 cfu/g; in the assay with Salmonella typhimurium [1] (setting [7]), 847 cfu/g; in the assay with Salmonella typhimurium [1] (setting [9]), 973 cfu/g; in the assay on Salmonella typhimurium [1] (setting [11]), 603 cfu/g; in the assay with Salmonella typhimurium [2] (setting [13]), 1133 cfu/g; in the assay with Salmonella typhimurium [2] (setting [15]) it was 880 cfu/g. The “Salmonella at time Interval 4 hr cfu/g” value in the assay on Salmonella typhimurium [2] (setting [17]) turned out to be 1133 cfu/g; in the assay with Salmonella typhimurium [2] (setting [19]), 857 cfu/g; in the assay with Salmonella typhimurium [3] (setting [21]) it was 990 cfu/g; with Salmonella typhimurium [3] (setting [22]) it was 1000 cfu/g. For the same molecule, the “Salmonella at time Interval 24 hr % reduction” value came out at 84% in the assay on Salmonella typhimurium [1] (setting [6]); 93% in the assay with Salmonella typhimurium [1] (setting [8]); 95% in the assay on Salmonella typhimurium [1] (setting [10]); 98% in the assay with Salmonella typhimurium [1] (setting [12]); 95% in the assay with Salmonella typhimurium [2] (setting [14]); 99% with Salmonella typhimurium [2] (setting [16]). Further, the “Salmonella at time Interval 24 hr % reduction” value was determined as 99% in the assay on Salmonella typhimurium [2] (setting [18]), 99% with Salmonella typhimurium [2] (setting [20]), 91% in the assay on Salmonella typhimurium [3] (setting [21]) and 96% in the assay with Salmonella typhimurium [3] (setting [22]). In addition, the “Salmonella at time Interval 24 hr cfu/g” value turned out to be 190 cfu/g in the assay with Salmonella typhimurium [1] (setting [6]); 83 cfu/g with Salmonella typhimurium [1] (setting [8]); 60 cfu/g in the assay with Salmonella typhimurium [1] (setting [10]); 27 cfu/g with Salmonella typhimurium [1] (setting [12]); 70 cfu/g in the assay on Salmonella typhimurium [2] (setting [14]); 17 cfu/g in the assay with Salmonella typhimurium [2] (setting [16]). Further, the “Salmonella at time Interval 24 hr cfu/g” value is 20 cfu/g in the assay on Salmonella typhimurium [2] (setting [18]), 13 cfu/g with Salmonella typhimurium [2] (setting [20]), 130 cfu/g in the assay with Salmonella typhimurium [3] (setting [21]) and 50 cfu/g with Salmonella typhimurium [3] (setting [22]).
On to `CC(=O)O` [Acetic acid], for which, in the assay with Salmonella typhimurium [4] (1 kg/ton), the “% Reduction” value is on record as 41.3% and the cfu/g was 3367 cfu/g. Also, in the assay with Salmonella typhimurium [4] (3 kg/ton), the “% Reduction” value was determined as 54.6% and the cfu/g is 2600 cfu/g. Besides, in the assay with Salmonella typhimurium [2] (Minimum Inhibitory Concentration of Pelargonic when mixed with acetic or propionic acid (buffered to pH 3), by linear regression, 4 hr), the “MIC at 4 HR” value is 0.171.
